In patent US12404304B1, “Telomerase reverse transcriptase (TERT) expression enhancing compounds and methods for using the same” (Sierra Sciences, LLC, priority 2007, dated 2025):
Where two headings read alike, the source gives them in different places.

What was measured:
[1] = test system: human TERT expression (hTERT mRNA); experiment: Quantitative real-time RT-PCR of hTERT mRNA expression (Ct, transcripts) in compound-treated cells; assay type: cell-based
How it was run: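 Read-out is cycle threshold, the cycle at which probe fluorescence released by Taq 5′-nuclease activity crosses a set level; Ct falls as hTERT mRNA rises. cDNA of treated and untreated cells was compared, with starting transcripts quantified against a known-cDNA standard curve.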

viable cells in culture = experiment: Cell viability assay (CellTiter-Glo Luminescent Cell Viability Assay, ATP quantitation, percent of vehicle control)

| Structure (SMILES) | Average Number of hTERT Transcripts ([1]; quantitative real-time RT-PCR) | Average Cell Viability after 24 Hours (% DMSO) (viable cells in culture) | Average Number of hTERT Transcripts [1] |
| --- | --- | --- | --- |
| CCOC(=O)c1cc(NC(=O)N(C(C)C)C(C)C)c(C)nc1C [compound 1342] | 4.48 | 103.16 % DMSO |  |
| O=C(CSc1ncccc1C(=O)O)Nc1ccc(Oc2ccccc2)cc1 [compound 1343] | 4.57 | 103.75 % DMSO |  |
| S=C(Nc1ccc(Br)cc1)Nc1cccc(Cl)c1 [compound 1344] | 7.86 | 42.95 % DMSO |  |
| S=C(Nc1cccc(Cl)c1)Nc1cc(Cl)ccc1Cl [compound 1345] | 24.88 | 45.42 % DMSO |  |
| COC(=O)COc1ccc(NC(=O)CSc2ccc(Cl)cc2)cc1 [compound 1346] | 31.23 | 56.33 % DMSO |  |
| CC(C)CN1CC23C=CC(O2)C(C(=O)OCc2ccccc2)C3C1=O (stereo not shown) [compound 1347] | 12.01 | 118.20 % DMSO |  |
| CCOC(=O)CSc1nc(C)c(CC)c(C)c1C(N)=O [compound 1348] | 5.97 | 106.19 % DMSO |  |
| O=C(CCN1C(=O)c2cccc3cccc(c23)C1=O)Nc1ccon1 [compound 1349] | 12.52 | 76.50 % DMSO |  |
| CC(C)Cc1nnc(SCC(=O)Nc2ccc(Br)cn2)[nH]1 [compound 1350] | 5.91 | 98.43 % DMSO |  |
| CC1CCN(C(=O)CN(Cc2ccc(F)cc2)S(C)(=O)=O)CC1 [compound 1351] | 5.17 | 98.19 % DMSO |  |
| CC(C)COc1ccc(NC(=O)C2CC2)cc1 [compound 1352] | 5.61 | 83.84 % DMSO |  |
| Cc1ccc(NC(=O)NCc2ccccc2F)cc1C [compound 1353] | 3.61 | 87.98 % DMSO |  |
| O=C(O)/C=C1\NC(=O)c2ccccc21 [compound 1354] | 14.31 | 96.80 % DMSO |  |
| O=C(O)CC12CC3CC(C1)CC(CC(=O)O)(C3)C2 [compound 1355] | 4.95 | 95.78 % DMSO |  |
| O=C(NCCc1ccncc1)C(F)(F)F [compound 1356] | 5.18 | 101.39 % DMSO |  |
| COC(=O)c1cc(OC)c(OC)cc1NC(=S)N1CCN(C)CC1 [compound 1357] | 9.07 | 95.29 % DMSO |  |
| CNC(=O)C1CCN(Cc2ccc(F)cc2)CC1 [compound 1358] | 7.53 | 111.88 % DMSO |  |
| CCCn1c(=O)n(CC)c(=O)c2ccccc21 [compound 1359] | 13.21 | 104.81 % DMSO |  |
| CCOc1ccc(N2C(=O)CC(N3CCC4(CC3)OCCO4)C2=O)cc1 (stereo not shown) [compound 1360] | 16.98 | 108.82 % DMSO |  |
| CSc1nc2nc(C)c(C(C)=O)c(C)n2n1 [compound 1361] | 17.57 | 109.24 % DMSO |  |
| CCCOc1ccc2c(c1)c1c3n2CCN(C)C3=NCC1 [compound 1362] | 15.20 | 75.90 % DMSO |  |
| CC1(C)CC(NC(=O)c2ccc(S(=O)(=O)N3CCOCC3)cc2)CC(C)(C)N1 [compound 1363] | 32.11 | 89.56 % DMSO |  |
| Cc1ccc(N2CC(C(=O)N3CC(C)CC(C)C3)CC2=O)c(C)c1 (stereo not shown) [compound 1364] | 9.06 | 104.57 % DMSO |  |
| Cc1ccc(N2CC(C(=O)N3CCCC3)CC2=O)c(C)c1 (stereo not shown) [compound 1365] | 10.67 | 99.89 % DMSO |  |
| CCc1nc2[nH]c3c(c(=O)n2n1)CCC3 [compound 1366] | 10.02 | 99.48 % DMSO |  |

| Structure (SMILES) | Average Number of hTERT Transcripts ([1]; quantitative real-time RT-PCR) | Average Cell Viability after 24 Hours (% DMSO) (viable cells in culture) | Average Number of hTERT Transcripts [1] |
| --- | --- | --- | --- |
| Nc1ccc(OCCCc2ccccc2)cc1 [compound 1367] | 7.25 | 94.27 % DMSO |  |
| C=C(C)Cn1c(CCO)nc2ccccc21 [compound 1368] | 9.25 | 106.63 % DMSO |  |
| Cc1nn2c(-c3cccnc3)nnc2s1 [compound 1369] | 15.35 | 98.38 % DMSO |  |
| C=CCNS(=O)(=O)c1ccc(C(=O)N2CCCCC2C)cc1 (stereo not shown) [compound 1370] |  | 107.18 % DMSO | 11.58 |
| CCC(=O)Nc1c(Br)cc(C)cc1C(=O)O [compound 1371] |  | 105.87 % DMSO | 5.46 |
| O=S(=O)(Nc1cccc2cccnc12)N1CCCCCC1 [compound 1373] |  | 65.74 % DMSO | 37.20 |
| Cc1ccccc1NC(=O)C1CC(Cl)=CCC1C(=O)O (stereo not shown) [compound 1374] |  | 107.65 % DMSO | 5.48 |
| CCC(C)NC(=S)Nc1ccc([N+](=O)[O-])cc1 (stereo not shown) [compound 1375] |  | 92.06 % DMSO | 11.45 |
| Cc1ccccc1NC(=O)C1CCN(S(=O)(=O)c2ccc(Br)cc2)CC1 [compound 1376] |  | 88.77 % DMSO | 4.72 |
| CC(C)C(=O)NC(c1ccc(C(C)C)cc1)c1ccc2ccccc2c1O (stereo not shown) [compound 1377] |  | 67.09 % DMSO | 10.23 |
| CCC(C)c1ccccc1OCCCCN1CCN(C)CC1 (stereo not shown) [compound 1378] |  | 89.06 % DMSO | 11.15 |
| O=C(O)c1ccc(NC(=S)NC(=O)c2cccc(Cl)c2)cc1 [compound 1379] |  | 82.14 % DMSO | 12.37 |
| Brc1cccc(OCCCN2CCCCC2)c1 [compound 1380] |  | 104.34 % DMSO | 5.98 |
| COc1ccc(C(=O)NC(=S)Nc2ccc(C(=O)O)cc2)cc1 [compound 1381] |  | 87.38 % DMSO | 8.62 |
| COc1ccc(OCCCN2CCN(c3ccccc3OC)CC2)cc1 [compound 1382] |  | 98.31 % DMSO | 6.08 |
| O=C(O)c1ccc(NC(=S)NC(=O)c2cccc3ccccc23)cc1 [compound 1383] |  | 74.00 % DMSO | 53.78 |
| O=C(O)c1ccc(NC(=S)NC(=O)c2ccccc2I)cc1 [compound 1384] |  | 84.52 % DMSO | 7.88 |
| O=[N+]([O-])c1ccc(S(=O)(=O)Nc2cc(Cl)ccc2O)cc1 [compound 1385] |  | 78.86 % DMSO | 21.71 |
| O=C(Nc1ccc(OC(F)(F)C(F)F)cc1)c1ccccc1O [compound 1386] |  | 30.71 % DMSO | 11.93 |
| COC(=O)COc1ccc(CSc2nnc(-c3ccc(Cl)cc3)n2-c2ccccc2)cc1 [compound 1388] |  | 29.68 % DMSO | 42.56 |
| CN1CCCC(OC(=O)COc2ccc(F)cc2)C1 (stereo not shown) [compound 1389] |  | 93.93 % DMSO | 9.17 |
| Cc1ccc(C)c(OCC(=O)Nc2cc(Cl)c(Cl)cc2Cl)c1 [compound 1390] |  | 106.51 % DMSO | 4.81 |
| CC(=O)Nc1ccccc1NS(=O)(=O)c1cccs1 [compound 1391] |  | 87.67 % DMSO | 4.95 |
| CCC(C)NC(=S)Nc1ccc(F)cc1 (stereo not shown) [compound 1392] |  | 102.61 % DMSO | 4.99 |
| O=C(CCc1ccccc1)NC(c1ccc([N+](=O)[O-])cc1)c1c(O)ccc2ccccc12 (stereo not shown) [compound 1393] |  | 62.25 % DMSO | 23.22 |
